According to US7211417B2, “Antibiotic P175-A and semisynthetic derivatives thereof” (priority 2003, dated 2007):
Converted amounts (≈) assume the structure as drawn. Read-outs that look alike come from different tables or passages of the source.

How the values were obtained:
Assay type in all cases: cell-based
Staphylococcus aureus = assay: MIC by broth dilution, Staphylococcus aureus
Procedure: (§1) The minimal inhibitory concentration (MIC), the lowest concentration of the antibiotic which inhibits growth of the test organism, is determined by the broth dilution method using Muller-Hinton II […] (Baltimore Biological Laboratories) following the recommendations of the National Committee for Clinical Laboratory Standards [Methods for dilution antimicrobial susceptibility tests for bacteria that grow aerobically. Approved standard M7-A2. National Committee for Clinical Laboratory Standards, Villanova, Pa.].
(§2) An inoculum level of 5×10^5 CFU/ml, and a range of antibiotic concentrations (64–0.06 μg/ml) is used. The MIC is determined after the microtiter plates are incubated for 18 hours at 35° C. in an ambient air incubator. The test organisms comprise a spectrum of the Gram-positive bacteria Staphylococcus aureus, Streptococcus pneumoniae, and Enterococcus sp., the Gram-negative bacteria Escherichia coli, and the yeast Candida albicans. These organisms include recent clinical isolates that are resistant to methicillin and vancomycin.

Candida albicans = assay: MIC by broth dilution, Candida albicans
Procedure: as §1, §2

Escherichia coli = assay: MIC by broth dilution, Escherichia coli
Procedure: as §1, §2

Escherichia coli (imp) = assay: MIC by broth dilution, Escherichia coli (imp)
Procedure: as §1, §2

Enterococcus faecalis = assay: MIC by broth dilution, Enterococcus faecalis
Procedure: as §1, §2

Bacillus subtilis = assay: MIC by broth dilution, Bacillus subtilis
[1] = system: Streptococcus pneumoniae GC 1894; assay: MIC by broth dilution, Streptococcus pneumoniae GC 1894
Procedure: as §1, §2

[2] = 3 strains, including a methicillin-resistant strain (MRSA), 18 hours at 35° C., read-out: MIC
[3] = 2 strains, including a vancomycin-resistant strain (VRE), 18 hours at 35° C., read-out: MIC
[4] = Streptococcus pneumoniae, GC1894, Streptococcus pneumoniae GC 1894* (5% LHB), read-out: MIC
[5] = Streptococcus pneumoniae, GC1894, Streptococcus pneumoniae GC 1894+ (THY), read-out: MIC

| SMILES | MIC (Staphylococcus aureus; [2]) [µg/mL] | MIC (Candida albicans; read-out: MIC) [µg/mL] | MIC (Escherichia coli; read-out: MIC) [µg/mL] | MIC (Escherichia coli (imp)) [µg/mL] | MIC (Enterococcus faecalis; [3]) [µg/mL] | MIC (Bacillus subtilis; read-out: MIC) [µg/mL] | MIC [1, 4] [µg/mL] | MIC [1, 5] [µg/mL] | MIC (Staphylococcus aureus; MRSA, 18 h) [µg/mL] | MIC (Candida albicans) [µg/mL] | MIC (Escherichia coli) [µg/mL] | MIC (Enterococcus faecalis; VRE, 18 h) [µg/mL] | MIC (Bacillus subtilis) [µg/mL] | MIC ([1]; Streptococcus pneumoniae GC 1894+ (THY)) [µg/mL] | MIC ([1]; Streptococcus pneumoniae, GC1894) [µg/mL] |
| --- | --- | --- | --- | --- | --- | --- | --- | --- | --- | --- | --- | --- | --- | --- | --- |
| COc1c2ccc3c(=O)c4cc(C)n(CC(=O)N5CC(C(=O)O)NC(=O)C5C)c(=O)c4c(=O)c3c2c(O)c2c(=O)c3cccc(O)c3c(=O)c12 (centres unmarked) [Example 3, P175-A] | 0.06 to 0.25 (≈ 0.0883 to 0.368 µM) | > 64 | > 64 | 8 (≈ 11.8 µM) | < 0.06 | 0.12 (≈ 0.177 µM) | 16 (≈ 23.5 µM) | 8 (≈ 11.8 µM) |  |  |  |  |  |  |  |
| COC(=O)C1CN(C(=O)Cn2c(C)cc3c(=O)c4ccc5c(OC)c6c(=O)c7c(O)cccc7c(=O)c6c(O)c5c4c(=O)c3c2=O)C(C)C(=O)N1 (centres unmarked) [Example 4, P175-A methyl ester] | 0.06 to 0.12 (≈ 0.0865 to 0.173 µM) | > 64 | > 64 | 4 (≈ 5.77 µM) | < 0.06 | 0.12 (≈ 0.173 µM) | 1 (≈ 1.44 µM) | 2 (≈ 2.88 µM) |  |  |  |  |  |  |  |
| CCOC(=O)C1CN(C(=O)Cn2c(C)cc3c(=O)c4ccc5c(OC)c6c(=O)c7c(O)cccc7c(=O)c6c(O)c5c4c(=O)c3c2=O)C(C)C(=O)N1 (centres unmarked) [Example 5, P175-A ethyl ester] | 0.06 to 0.12 (≈ 0.0848 to 0.17 µM) | > 64 | > 64 | 16 (≈ 22.6 µM) | 0.25 to 0.5 (≈ 0.353 to 0.707 µM) | 0.25 (≈ 0.353 µM) | 0.5 (≈ 0.707 µM) | 1 (≈ 1.41 µM) |  |  |  |  |  |  |  |
| COc1c2ccc3c(=O)c4cc(C)n(CC(=O)N5CC(C(=O)OC(C)C)NC(=O)C5C)c(=O)c4c(=O)c3c2c(O)c2c(=O)c3cccc(O)c3c(=O)c12 (centres unmarked) [Example 6, P175-A isopropyl ester] | 1 to 4 (≈ 1.39 to 5.54 µM) | > 64 | > 64 | 16 (≈ 22.2 µM) | 4 (≈ 5.54 µM) | 8 (≈ 11.1 µM) | 2 (≈ 2.77 µM) | 4 (≈ 5.54 µM) |  |  |  |  |  |  |  |
| COc1c2ccc3c(=O)c4cc(C)n(CC(=O)N5CC(C(=O)OCc6ccccc6)NC(=O)C5C)c(=O)c4c(=O)c3c2c(O)c2c(=O)c3cccc(O)c3c(=O)c12 (centres unmarked) [Example 7, P175-A benzyl ester] | 0.12 to 2 (≈ 0.156 to 2.6 µM) | > 64 | > 64 | 32 (≈ 41.6 µM) | 2 to 8 (≈ 2.6 to 10.4 µM) | 4 (≈ 5.2 µM) | 0.5 (≈ 0.65 µM) | 0.25 (≈ 0.325 µM) |  |  |  |  |  |  |  |
| COC(=O)COC(=O)C1CN(C(=O)Cn2c(C)cc3c(=O)c4ccc5c(OC)c6c(=O)c7c(O)cccc7c(=O)c6c(O)c5c4c(=O)c3c2=O)C(C)C(=O)N1 (centres unmarked) [Example 8A] |  |  |  | 8 (≈ 10.6 µM) |  |  |  |  | 0.5 to 2 (≈ 0.665 to 2.66 µM) | > 64 | > 64 | 0.5 to 1 (≈ 0.665 to 1.33 µM) | 1 (≈ 1.33 µM) | 64 (≈ 85.1 µM) | 64 (≈ 85.1 µM) |
| COc1c2ccc3c(=O)c4cc(C)n(CC(=O)N5CC(C(=O)O)NC(=O)C5C)c(=O)c4c(=O)c3c2c(O)c2c(=O)c3cccc(OCC(=O)O)c3c(=O)c12 (centres unmarked) [Example 9D] | 8 to 16 (≈ 10.8 to 21.7 µM) | > 64 | > 64 | > 64 | 8 (≈ 10.8 µM) | 8 (≈ 10.8 µM) | > 64 | 64 (≈ 86.8 µM) |  |  |  |  |  |  |  |
